The source of these data is patent publication US20240374585A1, “EPITHELIAL SODIUM CHANNEL (ENAC) INHIBITOR CONJUGATES AND METHODS FOR USE THEREOF” (Lung Therapeutics, Inc., priority 2021, published 2024).

The test concerns the target T1, ENaC (Homo sapiens, UniProt P37088+P51168+P51170).
T1 construct: Primary NHBE cells were isolated from bronchi of normal healthy patients; endogenous in cells; host or cells: primary normal human bronchial epithelial (NHBE) cells, differentiated at air-liquid interface
T1 sequence (P37088 1-669): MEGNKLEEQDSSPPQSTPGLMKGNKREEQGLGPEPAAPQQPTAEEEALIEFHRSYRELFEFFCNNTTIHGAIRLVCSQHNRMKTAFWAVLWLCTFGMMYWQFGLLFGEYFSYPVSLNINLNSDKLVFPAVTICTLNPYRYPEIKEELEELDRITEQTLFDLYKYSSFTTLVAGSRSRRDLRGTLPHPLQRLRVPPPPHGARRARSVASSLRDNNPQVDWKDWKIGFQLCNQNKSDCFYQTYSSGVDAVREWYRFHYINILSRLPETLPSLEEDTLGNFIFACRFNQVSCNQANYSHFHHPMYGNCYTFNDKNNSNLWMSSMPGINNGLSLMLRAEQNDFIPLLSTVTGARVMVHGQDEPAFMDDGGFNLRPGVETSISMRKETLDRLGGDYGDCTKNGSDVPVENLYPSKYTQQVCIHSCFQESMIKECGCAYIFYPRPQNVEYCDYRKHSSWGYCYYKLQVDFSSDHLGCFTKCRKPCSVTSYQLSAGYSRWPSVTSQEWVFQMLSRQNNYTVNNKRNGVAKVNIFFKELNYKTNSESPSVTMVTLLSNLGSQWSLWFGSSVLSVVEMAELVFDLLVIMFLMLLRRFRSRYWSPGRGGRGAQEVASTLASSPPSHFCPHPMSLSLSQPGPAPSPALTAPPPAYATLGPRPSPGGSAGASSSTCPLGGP
T1 sequence (P51168 1-640): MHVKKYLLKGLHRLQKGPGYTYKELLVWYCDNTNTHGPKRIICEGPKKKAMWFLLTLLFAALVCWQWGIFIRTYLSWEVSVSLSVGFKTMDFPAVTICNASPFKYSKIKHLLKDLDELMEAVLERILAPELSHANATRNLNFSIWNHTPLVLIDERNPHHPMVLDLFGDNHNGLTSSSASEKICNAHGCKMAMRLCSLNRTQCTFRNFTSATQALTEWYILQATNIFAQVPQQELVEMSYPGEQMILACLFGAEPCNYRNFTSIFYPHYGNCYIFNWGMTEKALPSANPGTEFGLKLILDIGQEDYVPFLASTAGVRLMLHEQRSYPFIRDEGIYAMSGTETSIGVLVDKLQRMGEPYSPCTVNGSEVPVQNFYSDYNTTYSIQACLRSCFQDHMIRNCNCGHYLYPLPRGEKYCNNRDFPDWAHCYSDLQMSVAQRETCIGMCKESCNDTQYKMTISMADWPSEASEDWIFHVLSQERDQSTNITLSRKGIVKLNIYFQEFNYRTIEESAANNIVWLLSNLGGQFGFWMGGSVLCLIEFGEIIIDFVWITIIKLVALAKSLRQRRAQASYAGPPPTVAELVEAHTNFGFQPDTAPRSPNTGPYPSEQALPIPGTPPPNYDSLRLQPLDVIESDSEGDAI
T1 sequence (P51170 1-649): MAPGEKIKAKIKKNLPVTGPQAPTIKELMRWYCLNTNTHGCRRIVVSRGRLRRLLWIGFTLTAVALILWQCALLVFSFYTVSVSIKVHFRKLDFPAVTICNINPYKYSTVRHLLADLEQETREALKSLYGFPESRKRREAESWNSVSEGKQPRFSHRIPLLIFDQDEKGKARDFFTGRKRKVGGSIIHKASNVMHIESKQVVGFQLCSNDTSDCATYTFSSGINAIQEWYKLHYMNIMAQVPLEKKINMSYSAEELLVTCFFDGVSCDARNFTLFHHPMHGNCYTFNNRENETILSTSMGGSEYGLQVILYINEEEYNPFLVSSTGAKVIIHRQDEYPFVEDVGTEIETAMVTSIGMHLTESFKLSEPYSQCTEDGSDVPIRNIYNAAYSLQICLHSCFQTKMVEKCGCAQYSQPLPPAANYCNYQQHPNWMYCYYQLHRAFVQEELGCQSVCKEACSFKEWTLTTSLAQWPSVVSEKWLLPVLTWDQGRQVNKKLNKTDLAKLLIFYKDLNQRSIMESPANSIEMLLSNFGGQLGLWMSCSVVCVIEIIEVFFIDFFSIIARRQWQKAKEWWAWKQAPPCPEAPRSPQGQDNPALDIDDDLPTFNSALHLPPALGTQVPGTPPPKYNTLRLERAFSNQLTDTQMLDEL
As to the kind of experiment: ENaC inhibition in NHBE cell monolayers, Ussing epithelial voltage clamp (short circuit current). The class given is cell-based. As to conditions: for fold more potent than amiloride (ENaC inhibition): relative to amiloride IC50. Here is the method:
The objective of this study was to measure the ability of the illustrative conjugates to modulate ion transport function of ENAC in normal human bronchial epithelial (NHBE) cell monolayers. Sodium transport function of ENAC expressed in NHBE monolayers was evaluated using an Ussing epithelial voltage clamp apparatus. See, Hirsh et al., J. Pharmacol. Exp. Ther. 2008; 325:77-88, hereby incorporated by reference in its entirety.
Primary NHBE cells were isolated from bronchi of normal healthy patients, expanded in Lonza media (BEGM™ BulletKit™), and plated on Snapwell™ filters to form an epithelium. Cells on Snapwell™ inserts were grown for at least 21 days in Vertex Differentiation media and exposed to an air-liquid interface to promote differentiation. At least one day before the assay, mucous overlaying the apical surface was removed from the inserts by incubating the apical surface for about 30 minutes with ≥200 μL of differentiation media followed by aspiration of the mucous film and media.
The NHBE cell monolayers grown on Snapwell™ filter inserts were transferred to Physiologic Instruments Ussing recording chambers (Physiologic Instruments, Inc., San Diego, CA) and superfused with HB-PS. One or more 6-channel or 8-channel Physiologic Instruments VCC MC6 or VCC MC8 epithelial voltage clamps were used in combination to record short circuit current (ISC) from up to 24 inserts simultaneously. Air was used to operate the bubble lifts to rapidly circulate solutions in each Ussing chamber half and to aerate the monolayers.
Inserts were voltage clamped at 0 m V to record the ISC. Bumetanide (20 μM) was added to the basolateral side of all inserts. Test conjugates prepared as DMSO (Sigma-Aldrich) stocks were added cumulatively and sequentially to the apical Ussing chamber halves with at least 3 minutes between each addition.
Time and volume matched additions of DMSO to the basolateral side of the test conjugate treated inserts and both sides of the vehicle treated inserts was made to maintain osmotic balance across the epithelia. Transepithelial resistance was monitored with small voltage steps. The assay was performed at 35±2° C.
ENaC current at each test conjugate concentration was calculated as the peak current change produced by each test conjugate treated insert minus the mean current change produced by the corresponding DMSO additions to time-matched vehicle controls inserts. Cumulative difference data was fit to a Hill equation of the form: […]
Where IEnaC is the ISC peak difference current measured at each test conjugate concentration [Test].

The mark [1] stands for this setting: NHBE cell monolayers, Ussing chamber, apical addition, 35±2° C., read-out: IC50 for the ENaC inhibition.

Read-outs that look alike come from different tables or passages of the source. Where a SMILES comes first, the peptide text is derived from it. [ ]: non-standard residue; d: D form. The star is where a group is joined. X2 = NC(=NC(=O)c1nc(Cl)c(N)nc1N)NCCCCN1C(=O)CC(*)C1=O; Hyp = O=C(O)[C@@H]1C[C@@H](O)CN1; Ahx = NCCCCCC(=O)O

Regarding `CC[C@H](C)[C@H](NC(=O)[C@H](Cc1ccc(O)cc1)NC(=O)[C@@H]1C[C@@H](O)CN1C(=O)[C@H](C)NC(=O)[C@H](CC(C)C)NC(=O)[C@H](C)NC(=O)CCCCCNC(=O)[C@H](CCCCNC(N)=NC(=O)c1nc(Cl)c(N)nc1N)NC(C)=O)C(N)=O` [Conjugate 1, Ac-(AmilAC)K-(Ahx)-ALA(Hyp)YI-NH2] (HELM PEPTIDE1{[ac].[NC(=NC(=O)c1nc(Cl)c(N)nc1N)NCCCC[C@H](N[*:1])C(=O)[*:2]].[O=C(CCCCCN[*:1])[*:2]].A.L.A.[Hyp].Y.I.[am]}$$$$V2.0), the IC50 under setting [1] stood at 290 nM.
Consider `CC(=O)N[C@@H](CCCCNC(N)=NC(=O)c1nc(Cl)c(N)nc1N)C(=O)NCCCCCC(=O)N[C@@H](C)C(=O)N[C@@H](CO)C(=O)N[C@@H](Cc1c[nH]cn1)C(=O)N[C@@H](CC(C)C)C(=O)N[C@@H](CCCNC(=N)N)C(=O)N[C@@H](CCCCN)C(=O)N[C@@H](CC(C)C)C(=O)N[C@@H](CCCNC(=N)N)C(=O)N[C@@H](CCCCN)C(=O)N[C@@H](CCCNC(=N)N)C(=O)N[C@@H](CC(C)C)C(=O)N[C@@H](CC(C)C)C(N)=O` [Conjugate 2] (HELM PEPTIDE1{[ac].[NC(=NC(=O)c1nc(Cl)c(N)nc1N)NCCCC[C@H](N[*:1])C(=O)[*:2]].[O=C(CCCCCN[*:1])[*:2]].A.S.H.L.R.K.L.R.K.R.L.L.[am]}$$$$V2.0), for which the IC50 under setting [1] came to 80 nM.
`CC(=O)N[C@@H](CCCCNC(N)=NC(=O)c1nc(Cl)c(N)nc1N)C(=O)NCCCCCC(=O)N[C@H](C(=O)N[C@@H](CO)C(=O)N[C@@H](CCCCN)C(=O)N[C@@H](CCCNC(=N)N)C(=O)N[C@@H](CCCNC(=N)N)C(N)=O)C(C)C` [Conjugate 3, Ac-(AmilAC)K-(Ahx)-VSKRR-NH2] (HELM PEPTIDE1{[ac].[NC(=NC(=O)c1nc(Cl)c(N)nc1N)NCCCC[C@H](N[*:1])C(=O)[*:2]].[O=C(CCCCCN[*:1])[*:2]].V.S.K.R.R.[am]}$$$$V2.0): the “fold more potent than amiloride (ENaC inhibition)” value is listed as “about 10 fold”. For the same compound, the IC50 under setting [1] came to 50 nM.
On to `CC[C@H](C)[C@H](NC(=O)[C@H](Cc1ccc(O)cc1)NC(=O)[C@@H]1C[C@@H](O)CN1C(=O)[C@H](C)NC(=O)[C@H](CC(C)C)NC(=O)[C@H](C)NC(=O)CCCCCNC(=O)[C@H](CCCCn1cc(CCCCCNC(N)=NC(=O)c2nc(Cl)c(N)nc2N)nn1)NC(C)=O)C(N)=O` [Conjugate 4, Ac-(AmilCC1-AzK)-Ahx-ALA(Hyp)YI-NH2], for which the 50% inhibitory concentration (IC50) under setting [1] is 240 nM.
Turning to `CC(=O)N[C@@H](CCCCn1cc(CCCCCNC(N)=NC(=O)c2nc(Cl)c(N)nc2N)nn1)C(=O)NCCCCCC(=O)N[C@@H](C)C(=O)N[C@@H](CO)C(=O)N[C@@H](Cc1c[nH]cn1)C(=O)N[C@@H](CC(C)C)C(=O)N[C@@H](CCCNC(=N)N)C(=O)N[C@@H](CCCCN)C(=O)N[C@@H](CC(C)C)C(=O)N[C@@H](CCCNC(=N)N)C(=O)N[C@@H](CCCCN)C(=O)N[C@@H](CCCNC(=N)N)C(=O)N[C@@H](CC(C)C)C(=O)N[C@@H](CC(C)C)C(N)=O` [Conjugate 5], the IC50 was determined as 30 nM and the “fold more potent than amiloride (ENaC inhibition)” value is “about 10 fold”.
For the compound `CC(=O)N[C@@H](CCCCn1cc(CCCCCNC(N)=NC(=O)c2nc(Cl)c(N)nc2N)nn1)C(=O)NCCCCCC(=O)N[C@H](C(=O)N[C@@H](CO)C(=O)N[C@@H](CCCCN)C(=O)N[C@@H](CCCNC(=N)N)C(=O)N[C@@H](CCCNC(=N)N)C(N)=O)C(C)C` [Conjugate 6, Ac-(AmilCC1-AzK)-Ahx-VSKRR-NH2], the IC50 under setting [1] came to 90 nM.
As for `CC[C@H](C)[C@H](NC(=O)[C@H](Cc1ccc(O)cc1)NC(=O)[C@@H]1C[C@@H](O)CN1C(=O)[C@H](C)NC(=O)[C@H](CC(C)C)NC(=O)[C@H](C)NC(=O)CCCCCNC(=O)[C@H](Cc1cn(CCCCNC(N)=NC(=O)c2nc(Cl)c(N)nc2N)nn1)NC(C)=O)C(N)=O` [Conjugate 7, Ac-(AmilCC2-Pgy)-Ahx-ALA(Hyp)YI-NH2], the IC50 under setting [1] came out at 790 nM.
On to `CC[C@H](C)[C@H](NC(=O)[C@H](Cc1ccc(O)cc1)NC(=O)[C@@H]1C[C@@H](O)CN1C(=O)[C@H](C)NC(=O)[C@H](CC(C)C)NC(=O)[C@H](C)NC(=O)CCCCCNC(=O)[C@H](CSC1CC(=O)N(CCCCNC(N)=NC(=O)c2nc(Cl)c(N)nc2N)C1=O)NC(C)=O)C(N)=O` (stereo partly shown) [Conjugate 10, Ac-(AmilTC-C)-Ahx-ALA(Hyp)YI-NH2] (Ac-C(X2)[Ahx]ALA[Hyp]YI-NH2), for which the IC50 amounted to 490 nM.
As for `CC(=O)N[C@@H](CSC1CC(=O)N(CCCCNC(N)=NC(=O)c2nc(Cl)c(N)nc2N)C1=O)C(=O)NCCCCCC(=O)N[C@@H](C)C(=O)N[C@@H](CO)C(=O)N[C@@H](Cc1c[nH]cn1)C(=O)N[C@@H](CC(C)C)C(=O)N[C@@H](CCCNC(=N)N)C(=O)N[C@@H](CCCCN)C(=O)N[C@@H](CC(C)C)C(=O)N[C@@H](CCCNC(=N)N)C(=O)N[C@@H](CCCCN)C(=O)N[C@@H](CCCNC(=N)N)C(=O)N[C@@H](CC(C)C)C(=O)N[C@@H](CC(C)C)C(N)=O` (stereo partly shown) [Conjugate 11] (Ac-C(X2)[Ahx]ASHLRKLRKRLL-NH2), the IC50 is 70 nM.
As to `CC(=O)N[C@@H](CSC1CC(=O)N(CCCCNC(N)=NC(=O)c2nc(Cl)c(N)nc2N)C1=O)C(=O)NCCCCCC(=O)N[C@H](C(=O)N[C@@H](CO)C(=O)N[C@@H](CCCCN)C(=O)N[C@@H](CCCNC(=N)N)C(=O)N[C@@H](CCCNC(=N)N)C(N)=O)C(C)C` (stereo partly shown) [Conjugate 12, Ac-(AmilTC-C)-Ahx-VSKRR-NH2] (Ac-C(X2)[Ahx]VSKRR-NH2), under setting [1], the IC50 turned out to be 80 nM.
“Ac-K-(Ahx)-ALA(Hyp)YI-NH2 (Ac-K[Ahx]ALA[Hyp]YI-NH2) [Peptide only Control 1, Peptide only control, reference compound]”: the “IC50 for the ENaC inhibition” value (NHBE cell monolayers, Ussing chamber, apical addition, 35±2° C.) is given as “Did not inhibit”.

A word on the IC50: it is the concentration that gives 50% inhibition.
